Values quoted from earlier work, collected in paper PMC10985535 (RSC Advances, 2024).

Test system: CT-DNA

In the case of CC[n+]1c(-c2ccccc2)c2cc(N)ccc2c2ccc(N)cc21.[Br-] [EtBr], the “Ksv of classical intercalator” value is given as 10^7 M^−1.
